pIC50: −log10 of the molar value.

In experiment [1] the target is T1, Long-chain-fatty-acid--CoA ligase 1 (Mus musculus, UniProt P41216).
T1 sequence (P41216 whole entry): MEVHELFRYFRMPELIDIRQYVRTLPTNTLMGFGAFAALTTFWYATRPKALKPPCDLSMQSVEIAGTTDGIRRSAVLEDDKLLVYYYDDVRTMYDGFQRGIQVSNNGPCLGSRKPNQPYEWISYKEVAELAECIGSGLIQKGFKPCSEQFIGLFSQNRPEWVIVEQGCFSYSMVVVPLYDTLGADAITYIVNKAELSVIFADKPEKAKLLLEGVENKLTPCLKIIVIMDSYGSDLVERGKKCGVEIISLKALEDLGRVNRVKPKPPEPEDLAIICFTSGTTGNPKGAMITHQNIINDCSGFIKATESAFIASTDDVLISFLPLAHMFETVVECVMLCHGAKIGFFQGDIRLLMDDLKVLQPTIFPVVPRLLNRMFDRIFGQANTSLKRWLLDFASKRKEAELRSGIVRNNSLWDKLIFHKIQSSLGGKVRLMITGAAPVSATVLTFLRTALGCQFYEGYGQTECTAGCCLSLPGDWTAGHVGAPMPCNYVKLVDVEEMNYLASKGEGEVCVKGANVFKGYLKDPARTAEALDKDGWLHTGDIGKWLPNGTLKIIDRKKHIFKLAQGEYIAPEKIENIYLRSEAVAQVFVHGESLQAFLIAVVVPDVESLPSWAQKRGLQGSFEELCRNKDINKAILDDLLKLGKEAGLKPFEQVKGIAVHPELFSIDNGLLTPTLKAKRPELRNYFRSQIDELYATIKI
The experiment in a line: Inhibition of recombinant mouse ACSL1 assessed as reduction in […] prodution incubated for 90 mins in presence of Coenzyme A, ATP and MgCl2 by MALDI-TOF MS analysis.

The target in experiment [2] is T2, Long-chain-fatty-acid--CoA ligase 1 (Homo sapiens, UniProt P33121).
T2 sequence (P33121 whole entry): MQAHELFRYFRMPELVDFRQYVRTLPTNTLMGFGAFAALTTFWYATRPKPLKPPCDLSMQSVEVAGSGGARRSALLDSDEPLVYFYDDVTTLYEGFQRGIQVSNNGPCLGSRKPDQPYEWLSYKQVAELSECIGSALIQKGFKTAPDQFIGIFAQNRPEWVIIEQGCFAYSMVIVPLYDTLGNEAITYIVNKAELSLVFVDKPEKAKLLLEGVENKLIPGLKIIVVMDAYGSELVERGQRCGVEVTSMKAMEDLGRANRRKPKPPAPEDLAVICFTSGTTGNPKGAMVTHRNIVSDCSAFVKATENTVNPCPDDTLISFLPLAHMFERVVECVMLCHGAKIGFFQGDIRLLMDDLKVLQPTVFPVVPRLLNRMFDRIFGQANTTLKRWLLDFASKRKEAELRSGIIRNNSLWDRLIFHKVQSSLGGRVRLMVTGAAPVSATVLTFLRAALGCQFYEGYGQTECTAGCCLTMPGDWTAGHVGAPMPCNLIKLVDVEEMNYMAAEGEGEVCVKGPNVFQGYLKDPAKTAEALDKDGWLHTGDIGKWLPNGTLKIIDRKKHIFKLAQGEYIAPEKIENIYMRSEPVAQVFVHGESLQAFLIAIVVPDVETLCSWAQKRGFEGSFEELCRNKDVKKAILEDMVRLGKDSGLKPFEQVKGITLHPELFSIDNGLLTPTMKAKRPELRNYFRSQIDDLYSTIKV
The experiment in a line: Inhibition of recombinant human ACSL1 assessed as reduction in […] prodution incubated for 90 mins in presence of Coenzyme A, ATP and MgCl2 by MALDI-TOF MS analysis.

Experiment [3] deals with T2, Long-chain-fatty-acid--CoA ligase 1. The experiment in a line: Inhibition of ACSL1 (unknown origin) assessed as reduction in […] prodution incubated for 90 mins in presence of Coenzyme A, ATP and MgCl2 by MALDI-TOF MS analysis.

Usually pIC50 stands for the IC50 on a negative log10 scale, so that one unit is a factor of ten. For the compound `Cc1cccc(Cc2nc3cc(O[C@H]4CC[C@@H](C(N)=O)CC4)ccc3n2C)c1`, the pIC50 in experiment [1] is 6.72; in experiment [2], 6.02. In the case of `Cc1cccc(Cc2nc3cc(O[C@H]4CC[C@@](F)(c5nnn[nH]5)CC4)ccc3n2C)c1`, the pIC50 in experiment [1] and in experiment [2] was 7.89 each time. With `Cc1cccc(COc2nc3cc(O[C@H]4CC[C@@H](C(=O)O)CC4)ccc3n2C)c1`, the pIC50 in experiment [1] is 5.09; in experiment [2] it was 4.77. For `Cc1ccccc1Cc1nc2cc(O[C@H]3CC[C@@H](C(=O)O)CC3)ccc2n1C`, the negative-log IC50 (pIC50) is 5.27 in experiment [1] and 5.11 in experiment [2]. `O=C(O)[C@H]1CC[C@@H](Oc2ccc3c(c2)Cc2ccccc2O3)CC1`: the values for the negative logarithm of the IC50 (pIC50) in experiment [1] and in experiment [2] were 5.40 and 5.34, respectively. For the compound `Cc1cccc(Oc2nc3cc(O[C@H]4CC[C@@H](C(=O)O)CC4)ccc3n2C)c1`, the pIC50 in experiment [1] is 4.68; in experiment [2], 4.11. `Cc1cccc(Cc2nc3cc(O[C@H]4CC[C@@H](c5noc(=O)[nH]5)CC4)ccc3n2C)c1`: the pIC50 in experiment [1] is 7.00; in experiment [2] it was 7.33.

`O=c1c2ccccc2oc2ccc(OC[C@H]3CC[C@@H](C(=O)O)CC3)cc12`: the pIC50 in experiment [3] is less than 3.70. As for `Cc1cccc(Cc2c(C(N)=O)c3cc(O[C@H]4CC[C@@H](C(=O)O)CC4)ccc3n2C)c1`, the results for the pIC50 in experiment [1] and in experiment [2] were 6.36 and 6.22, respectively. As for `Cc1cccc(Cc2nc3cc(O[C@H]4CC[C@@H](C(=O)O)CC4)ccc3o2)c1`, the pIC50 in experiment [1] is 6.85; in experiment [2] it was 7.41. `O=c1c2ccccc2oc2ccc(O[C@H]3CC[C@H](C(=O)O)CC3)cc12`: the results for the pIC50 in experiment [1], in experiment [3] and in experiment [2] were 5.85, less than 3.70 and 6.62, respectively.

Consider `Cc1cccc(Cc2nc3ccc(O[C@H]4CC[C@@H](C(=O)O)CC4)cc3n2C)c1`, for which the pIC50 in experiment [1] and in experiment [2] was less than 3.70 each time.

Regarding `Cc1cccc(Cc2nc3cc(O[C@H]4CC[C@@H](C(=O)O)CC4)ccc3n2C(C)C)c1`, the negative-log IC50 (pIC50) in experiment [1] and in experiment [2] was less than 3.70 each time. Turning to `Cn1c(Cc2cccc(C#N)c2)nc2cc(O[C@H]3CC[C@@H](C(=O)O)CC3)ccc21`, the pIC50 was 4.66 in experiment [1] and 4.29 in experiment [2]. `Cc1cccc(C(=O)c2nc3cc(O[C@H]4CC[C@@H](C(=O)O)CC4)ccc3n2C)c1`: the pIC50 in experiment [2] is less than 3.70.

On to `Cc1cccc(Cc2c(C#N)c3cc(O[C@H]4CC[C@@H](C(=O)O)CC4)ccc3n2C)c1`, for which the pIC50 is 6.22 in experiment [1] and 5.72 in experiment [2]. In the case of `Cc1cccc(Cc2nc3cc(O[C@H]4CC[C@@H](C(=O)O)CC4)c(Cl)cc3n2C)c1`, the pIC50 is 7.00 in experiment [1] and 7.33 in experiment [2]. Regarding `O=C(O)[C@H]1CC[C@@H](Oc2ccc3oc(-c4ccccc4)nc3c2)CC1`, the pIC50 was 4.23 in experiment [1] and 5.36 in experiment [2].

As for `Cc1cccc(Cc2cc3cc(O[C@H]4CC[C@@H](C(=O)O)CC4)ccc3n2C)c1`, the pIC50 in experiment [1] and in experiment [2] was 6.40 in each case. Turning to `Cc1cccc(Cc2nc3cc(O[C@H]4CC[C@@H](C(=O)O)CC4)cc(Cl)c3n2C)c1`, the results for the pIC50 in experiment [1] and in experiment [2] were 6.77 and 7.55, respectively. Consider `O=C(O)C[C@H]1CC[C@@H](Oc2ccc3oc4ccccc4c(=O)c3c2)CC1`, for which the pIC50 in experiment [3] was 4.74. Take `Cc1cccc(Cc2nc3nc(O[C@H]4CC[C@@H](C(=O)O)CC4)ccc3n2C)c1`: the results for the pIC50 in experiment [1] and in experiment [2] were 7.10 and 7.36, respectively. Turning to `O=C(O)c1ccc(Oc2ccc3oc4ccccc4c(=O)c3c2)cc1`, in experiment [3], the pIC50 was less than 3.70.

`O=C(O)C[C@H]1CC[C@H](Oc2ccc3oc4ccccc4c(=O)c3c2)CC1`: the pIC50 in experiment [3] was less than 3.70. In the case of `Cc1cccc(Cc2nc3c(Cl)c(O[C@H]4CC[C@@H](C(=O)O)CC4)ccc3n2C)c1`, the negative logarithm of the IC50 (pIC50) in experiment [1] was 4.25; in experiment [2], 4.21.

In the case of `O=c1c2ccccc2oc2ccc(OC[C@H]3CC[C@H](C(=O)O)CC3)cc12`, the pIC50 in experiment [3] is less than 3.70. With `Cc1cccc(Cc2nc3cc(O[C@H]4CC[C@@H](C(=O)O)CC4)ncc3n2C)c1`, the negative-log IC50 (pIC50) in experiment [1] is 4.34; in experiment [2] it was 4.39. For the compound `Cc1cccc(Cc2nc3cc(O[C@H]4CC[C@@H](c5nnn[nH]5)CC4)ccc3n2C)c1`, the values for the pIC50 in experiment [1] and in experiment [2] were 7.60 and 7.47, respectively.

As to `Cn1c(Cc2ccc3c(c2)OCC3)nc2cc(O[C@H]3CC[C@@H](C(=O)O)CC3)ccc21`, the pIC50 in experiment [1] is 7.44; in experiment [2], 7.89. With `Cn1c(Cc2ccc3c(c2)OCC3)nc2cc(O[C@H]3CC[C@@](F)(c4nnn[nH]4)CC3)ccc21`, the figures for the pIC50 in experiment [1] and in experiment [2] were 7.82 and 8.52, respectively.

For the compound `Cn1c(Cc2cccc(C(F)(F)F)c2)nc2cc(O[C@H]3CC[C@@H](C(=O)O)CC3)ccc21`, the results for the pIC50 in experiment [1] and in experiment [2] were 7.07 and 6.72, respectively.

As for `Cn1c(Cc2cccnc2)nc2cc(O[C@H]3CC[C@@H](C(=O)O)CC3)ccc21`, the pIC50 is less than 3.70 in experiment [1] and 3.85 in experiment [2]. Consider `Cc1ccc(Cc2nc3cc(O[C@H]4CC[C@@H](C(=O)O)CC4)ccc3n2C)cc1`, for which the pIC50 in experiment [1] was 7.10; in experiment [2] it was 6.82. On the same counts, the results for `Cc1cccc(Cn2nc3cc(O[C@H]4CC[C@@H](C(=O)O)CC4)ccc3c2C)c1` are 7.28 and 7.35.
